In US20230067406A1, “Herbicide Combinations Comprising Glufosinate and Flumioxazin” (BASF SE, priority 2020, published 2023):

System: Kochia (Bassia scoparia)
Test: Greenhouse post emergence treatment, herbicidal activity by visual control on a 0 to 100 scale
Assay type: in vivo
Conditions: scale 0 to 100, mean of three replications
Excerpt: Synergism can be described as an interaction where the combined effect of two or more compounds is greater than the sum of the individual effects of each of the compounds. The presence of a synergistic effect in terms of percent control, between two mixing partners (X and Y) can be calculated using the Colby equation (Colby, S. R., 1967, Calculating Synergistic and Antagonistic Responses in Herbicide Combinations, Weeds, 15, 21-22):
When the observed combined control effect is greater than the expected (calculated) combined control effect (E), then the combined effect is synergistic.
Weed included Kochia (Bassia scoparia). However, the herbicidal effect afforded by the compounds, mixtures or compositions is not limited to these species. The analysis of synergism or antagonism between the mixtures or compositions was determined using Colby's equation. • Test Method: […]
Pots with 0.3 L of volume were filled with soil (SunGroco Horticulture, Agawam, MA 01001) to grow one plant per pot in the greenhouse until the desired developmental stage.
Environmental conditions inside the greenhouse were setup for 25° C., 75% relative humidity, and 12 h light day-1 with natural sunlight or 500 μmol m−1 s−1 PAR for cloudy days. […]
The test period extended to 2 to 21 days after treatment. During this time, the plants were tended, and their response to the individual treatments was evaluated. […]

Row | Structure (SMILES) | Herbicidal activity against Kochia (21 DAT), Found (Glufosinate 420 g ai/ha alone) | Herbicidal activity against Kochia (21 DAT), Found (Flumioxazin 2.5 g ai/ha alone)
1 | CP(=O)(O)CCC(N)C(=O)O (racemic) [Glufosinate, (2RS)-2-amino-4-[hydroxy(methyl)phosphinoyl]butyric acid] | 25 | 
2 | C#CCN1C(=O)COc2cc(F)c(N3C(=O)C4=C(CCCC4)C3=O)cc21 [Flumioxazin, flumioxazin] |  | 4
